# According to patent US12077503B2, “Substituted cyclic amides and their use as herbicides” (FMC CORPORATION, priority 2015, dated 2024):
# Columns and labels:
# Test in all cases: Test C preemergence
# Type in all cases: in vivo
# [1] = test system: crabgrass, large (large crabgrass, Digitaria sanguinalis); details: for Plant response rating, Crabgrass, Large: scale 0 to 100, 0 no effect, 100 complete control
# How it was run: (§1)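 Assessment: visual, 13–15 d after treatment, 0 (no effect) to 100 (complete control) relative to controls. Treatment: preemergence to seeds in loam-sand soil, or postemergence to 1- to 4-leaf plants in peat-based medium. Formulation: non-phytotoxic solvent mixture with surfactant.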
# [2] = test system: pigweed (Amaranthus retroflexus); details: for Plant response rating, Pigweed: scale 0 to 100, 0 no effect, 100 complete control
# How it was run: as §1
# soybean (Glycine max) = details: for Plant response rating, Soybean: scale 0 to 100, 0 no effect, 100 complete control
# How it was run: as §1
# [3] = test system: morningglory (Ipomoea coccinea); details: for Plant response rating, Morningglory: scale 0 to 100, 0 no effect, 100 complete control
# How it was run: as §1
# [4] = test system: velvetleaf (Abutilon theophrasti); details: for Plant response rating, Velvetleaf: scale 0 to 100, 0 no effect, 100 complete control
# How it was run: as §1
# [5] = test system: foxtail, giant (giant foxtail, Setaria faberii); details: for Plant response rating, Foxtail, Giant: scale 0 to 100, 0 no effect, 100 complete control
# How it was run: as §1
# [6] = test system: Galium (catchweed bedstraw, Galium aparine); details: for Plant response rating, Galium: scale 0 to 100, 0 no effect, 100 complete control
# How it was run: as §1
# [7] = test system: oilseed rape (Brassica napus); details: for Plant response rating, Oilseed Rape: scale 0 to 100, 0 no effect, 100 complete control
# How it was run: as §1
# [8] = test system: ryegrass, Italian (Italian ryegrass, Lolium multiflorum); details: for Plant response rating, Ryegrass, Italian: scale 0 to 100, 0 no effect, 100 complete control
# How it was run: as §1
# [9] = test system: wheat (winter wheat, Triticum aestivum); details: for Plant response rating, Wheat: scale 0 to 100, 0 no effect, 100 complete control
# How it was run: as §1
# corn (Zea mays) = details: for Plant response rating, Corn: scale 0 to 100, 0 no effect, 100 complete control
# How it was run: as §1
# [10] = test system: nutsedge, yellow (yellow nutsedge, Cyperus esculentus); details: for Plant response rating, Nutsedge, Yellow: scale 0 to 100, 0 no effect, 100 complete control
# How it was run: as §1
# [11] = test system: johnsongrass (Sorghum halepense); details: for Plant response rating, Johnsongrass: scale 0 to 100, 0 no effect, 100 complete control
# How it was run: as §1
# [12] = test system: lambsquarters (Chenopodium album); details: for Plant response rating, Lambsquarters: scale 0 to 100, 0 no effect, 100 complete control
# How it was run: as §1
# [13] = test system: barnyardgrass (Echinochloa crus-galli); details: for Plant response rating, Barnyardgrass: scale 0 to 100, 0 no effect, 100 complete control
# How it was run: as §1
# [14] = test system: ragweed (common ragweed, Ambrosia elatior); details: for Plant response rating, Ragweed: scale 0 to 100, 0 no effect, 100 complete control
# How it was run: as §1
# [15] = test system: blackgrass (Alopecurus myosuroides); details: for Plant response rating, Blackgrass: scale 0 to 100, 0 no effect, 100 complete control
# How it was run: as §1
# [16] = 31 g ai/ha, 0 is no effect, 100 is complete control
smiles,measurement,setting,value
CN1CC(c2cc(F)cc(F)c2)C(C(=O)Nc2ccc(F)c(F)c2F)C1=O (centres unmarked) [Compound 646],"Plant response rating (scale of 0 to 100), Crabgrass, Large",[1]; [16],95
same,"Plant response rating, Crabgrass, Large",[1]; 62 g ai/ha,95
same,"Plant response rating, Crabgrass, Large",[1]; 125 g ai/ha,98
same,"Plant response rating, Crabgrass, Large",[1]; 250 g ai/ha,100
same,"Plant response rating (scale of 0 to 100), Pigweed",[2]; [16],0
same,"Plant response rating, Pigweed",[2]; 62 g ai/ha,10
same,"Plant response rating, Pigweed",[2]; 125 g ai/ha,65
same,"Plant response rating, Pigweed",[2]; 250 g ai/ha,75
same,"Plant response rating (scale of 0 to 100), Soybean",soybean (Glycine max); [16],0
same,"Plant response rating, Soybean",soybean (Glycine max); 62 g ai/ha,0
same,"Plant response rating, Soybean",soybean (Glycine max); 125 g ai/ha,10
same,"Plant response rating, Soybean",soybean (Glycine max); 250 g ai/ha,0
same,"Plant response rating (scale of 0 to 100), Morningglory",[3]; [16],0
same,"Plant response rating, Morningglory",[3]; 62 g ai/ha,0
same,"Plant response rating, Morningglory",[3]; 125 g ai/ha,0
same,"Plant response rating, Morningglory",[3]; 250 g ai/ha,10
same,"Plant response rating (scale of 0 to 100), Velvetleaf",[4]; [16],15
same,"Plant response rating, Velvetleaf",[4]; 62 g ai/ha,25
same,"Plant response rating, Velvetleaf",[4]; 125 g ai/ha,55
same,"Plant response rating, Velvetleaf",[4]; 250 g ai/ha,60
same,"Plant response rating (scale of 0 to 100), Foxtail, Giant",[5]; [16],95
same,"Plant response rating, Foxtail, Giant",[5]; 62 g ai/ha,95
same,"Plant response rating, Foxtail, Giant",[5]; 125 g ai/ha,95
same,"Plant response rating, Foxtail, Giant",[5]; 250 g ai/ha,98
same,"Plant response rating (scale of 0 to 100), Galium",[6]; [16],90
same,"Plant response rating, Galium",[6]; 62 g ai/ha,90
same,"Plant response rating, Galium",[6]; 125 g ai/ha,90
same,"Plant response rating, Galium",[6]; 250 g ai/ha,100
same,"Plant response rating (scale of 0 to 100), Oilseed Rape",[7]; [16],15
same,"Plant response rating, Oilseed Rape",[7]; 62 g ai/ha,80
same,"Plant response rating, Oilseed Rape",[7]; 125 g ai/ha,85
same,"Plant response rating, Oilseed Rape",[7]; 250 g ai/ha,90
same,"Plant response rating (scale of 0 to 100), Ryegrass, Italian",[8]; [16],30
same,"Plant response rating, Ryegrass, Italian",[8]; 62 g ai/ha,20
same,"Plant response rating, Ryegrass, Italian",[8]; 125 g ai/ha,80
same,"Plant response rating, Ryegrass, Italian",[8]; 250 g ai/ha,90
same,"Plant response rating (scale of 0 to 100), Wheat",[9]; [16],35
same,"Plant response rating, Wheat",[9]; 62 g ai/ha,80
same,"Plant response rating, Wheat",[9]; 125 g ai/ha,85
same,"Plant response rating, Wheat",[9]; 250 g ai/ha,90
same,"Plant response rating (scale of 0 to 100), Corn",corn (Zea mays); [16],35
same,"Plant response rating, Corn",corn (Zea mays); 62 g ai/ha,45
same,"Plant response rating, Corn",corn (Zea mays); 125 g ai/ha,65
same,"Plant response rating, Corn",corn (Zea mays); 250 g ai/ha,75
same,"Plant response rating (scale of 0 to 100), Nutsedge, Yellow",[10]; [16],0
same,"Plant response rating, Nutsedge, Yellow",[10]; 62 g ai/ha,0
same,"Plant response rating, Nutsedge, Yellow",[10]; 125 g ai/ha,0
same,"Plant response rating, Nutsedge, Yellow",[10]; 250 g ai/ha,35
same,"Plant response rating (scale of 0 to 100), Johnsongrass",[11]; [16],35
same,"Plant response rating, Johnsongrass",[11]; 62 g ai/ha,40
same,"Plant response rating, Johnsongrass",[11]; 125 g ai/ha,85
same,"Plant response rating, Johnsongrass",[11]; 250 g ai/ha,90
same,"Plant response rating (scale of 0 to 100), Lambsquarters",[12]; [16],40
same,"Plant response rating, Lambsquarters",[12]; 62 g ai/ha,60
same,"Plant response rating, Lambsquarters",[12]; 125 g ai/ha,75
same,"Plant response rating, Lambsquarters",[12]; 250 g ai/ha,80
same,"Plant response rating (scale of 0 to 100), Barnyardgrass",[13]; [16],90
same,"Plant response rating, Barnyardgrass",[13]; 62 g ai/ha,95
same,"Plant response rating, Barnyardgrass",[13]; 125 g ai/ha,98
same,"Plant response rating, Barnyardgrass",[13]; 250 g ai/ha,98
same,"Plant response rating (scale of 0 to 100), Ragweed",[14]; [16],20
same,"Plant response rating, Ragweed",[14]; 62 g ai/ha,30
same,"Plant response rating, Ragweed",[14]; 125 g ai/ha,60
same,"Plant response rating, Ragweed",[14]; 250 g ai/ha,70
same,"Plant response rating (scale of 0 to 100), Blackgrass",[15]; [16],80
same,"Plant response rating, Blackgrass",[15]; 62 g ai/ha,80
same,"Plant response rating, Blackgrass",[15]; 125 g ai/ha,85
same,"Plant response rating, Blackgrass",[15]; 250 g ai/ha,98
